Test results: article PMC12687421, “Characterisation of an allosteric site in PLCγ enzymes and implications for development of their specific inhibitors” (Biochemical Journal, 2025)

Test system: PLCγ1^D1165H
Assay: PLC activity assay 1 (A1), PLCγ1 D1165H variant
Format: biochemical, human
Protocol: The effect of nucleotide inhibition on PLC activity was measured using either a membrane-based assay with the fluorescent substrate (XY-69) incorporated into liposomes or using a small soluble substrate, Aldol 518 myo-inositol-1-phosphate (Aldol). Both methods utilised the same PLC assay buffer [20 mM Hepes-KOH, 70 mM KCl, 3 mM EGTA, 2.97 mM CaCl2, 2 mM TCEP and fatty acid-free bovine serum albumin (FAF-BSA; 50 μg/ml) (pH 7.5)]. Both assays were performed in low volume black 384-well plates (Greiner Bio-One), were composed of a final assay volume of 20 μl and were monitored in a Clariostar plate reader (BMG Labtech). […] The excitation and emission wavelengths were 588–15 and 642–20, respectively.
A CLARIOstar plate reader (BMG Labtech) was used to measure the production of the fluorescent product. The excitation and emission wavelengths were 485–15 and 520–20, respectively. Each experiment was performed in at least triplicate; in many cases, nine-fold replicates were generated. The enzyme progress curves were plotted for each concentration of nucleotide using Graphpad Prism software. The initial linear rate of product generation was calculated and converted to a % inhibition when compared with the rate of PLC activity in the absence of nucleotide. […]

Nc1ncnc2c1ncn2[C@@H]1O[C@H](COP(=O)(O)OP(=O)(O)O)[C@@H](O)[C@H]1O [ADP]
IC50 relative to PLCγ1^wt (fold higher): 5–7 fold
